Test results from paper PMC10518717, “High-Throughput Screening and Proteomic Characterization of Compounds Targeting Myeloid-Derived Suppressor Cells” (Molecular & Cellular Proteomics : MCP, 2023).

Target: T1, NUP-MDSC cell lysate (Mus musculus, UniProt O70589)
T1 construct: endogenous in cells; host or cells: mouse NUP-MDSC (lysate)
T1 sequence (O70589 1-926): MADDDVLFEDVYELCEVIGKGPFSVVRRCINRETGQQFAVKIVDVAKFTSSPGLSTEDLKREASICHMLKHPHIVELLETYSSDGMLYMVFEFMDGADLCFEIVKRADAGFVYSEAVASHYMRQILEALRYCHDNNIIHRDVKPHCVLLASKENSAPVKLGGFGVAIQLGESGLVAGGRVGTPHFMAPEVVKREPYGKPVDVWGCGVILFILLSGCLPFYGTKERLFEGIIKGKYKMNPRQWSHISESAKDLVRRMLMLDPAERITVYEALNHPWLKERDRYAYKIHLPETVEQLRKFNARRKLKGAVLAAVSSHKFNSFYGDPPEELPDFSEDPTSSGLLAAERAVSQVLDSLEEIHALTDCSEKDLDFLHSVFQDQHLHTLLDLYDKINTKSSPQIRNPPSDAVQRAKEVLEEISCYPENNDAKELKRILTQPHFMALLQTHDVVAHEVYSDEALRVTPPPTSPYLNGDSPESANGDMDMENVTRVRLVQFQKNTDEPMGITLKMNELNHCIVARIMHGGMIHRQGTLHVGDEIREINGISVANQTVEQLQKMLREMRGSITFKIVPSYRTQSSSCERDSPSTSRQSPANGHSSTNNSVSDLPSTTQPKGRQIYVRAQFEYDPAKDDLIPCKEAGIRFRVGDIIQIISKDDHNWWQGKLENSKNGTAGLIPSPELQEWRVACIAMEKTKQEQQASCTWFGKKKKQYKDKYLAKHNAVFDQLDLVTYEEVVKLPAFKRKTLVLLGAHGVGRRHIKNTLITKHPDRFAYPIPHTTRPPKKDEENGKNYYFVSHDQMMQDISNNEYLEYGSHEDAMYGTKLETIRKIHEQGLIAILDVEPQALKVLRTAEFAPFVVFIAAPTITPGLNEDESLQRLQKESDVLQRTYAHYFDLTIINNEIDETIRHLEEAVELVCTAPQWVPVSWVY
Test: Solvent-induced protein precipitation profiling, proteome-wide
Type: binding
Conditions: protein Cask; soluble fraction; 26 uM
Procedure: NUP-MDSCs were differentiated as described above, washed twice with PBS, resuspended in lysis buffer (PBS, 0.4% IGEPAL CA-630, 1× Halt Protease-Inhibitor Cocktail (Thermo Fisher Scientific)), and subjected to three freeze-thaw cycles. The lysate was cleared by centrifugation for 30 min at 18,000g and 4 °C. The soluble fraction was diluted to 4 mg/ml and allowed to warm up to room temperature. Equal volumes of lysate were treated in triplicates with 100 x compound stock solutions (in DMSO) or DMSO for 15 min at room temperature (final concentrations: cmpd 2: 7.8 μM (3xEC50) and 26 μM (10xEC50), cmpd 3: 10 μM and 26 μM). Similar to a previous study ([46]), each sample was divided into eight aliquots to be denatured using different concentrations (8%, 10%, 12%, 14%, 16%, 18%, 20%, 22%) of acetone:ethanol:acetic acid (50:50:0.1) in water for 20 min at 37 °C with vigorous shaking. Aggregated proteins were separated by centrifugation for 45 min at 4 °C and 3900g. Next, equal amounts of the soluble fraction were pooled for subsequent proteomic analysis.
Methanol was added to 100 μg of the pooled supernatants to a final concentration of 70% and further processed according to the R2P1 protocol ([47]), with tryptic digestion performed in 50 mM Hepes (pH 8.5). Elution fractions were combined and dried by vacuum centrifugation. Dried samples were resuspended in deionized water, and TMT labeling was performed according to Zecha et al. ([35]). All 15 samples (5 treatment conditions in triplicates) were labeled with one TMTpro plex. Next, equal amounts were pooled and desalted by C18 solid-phase extraction cartridges (Sep-Pak Vac 1 cc C18 Cartridges, Waters Corp). Desalted peptides were chromatographically separated via basic reversed phase chromatography as previously described ([36]) into 24 fractions, dried down, and stored at −20 °C until further analysis.
Peptides were analyzed via LC-MS/MS on a Vanquish Neo UHPLC coupled to an Orbitrap Eclipse Tribrid mass spectrometer (Thermo Fisher Scientific). […] The mass spectrometer was operated in data-dependent mode and positive ionization mode. Samples were measured, employing a MS3 method with real-time search. […] Iontrap-MS2 spectra for peptide identification were acquired using HCD fragmentation with 35% NCE, an isolation window of 0.7 m/z, an AGC target value of 5e4 charges, and a maxIT of 35 ms. To obtain quantitative information on TMT reporter ions, each peptide precursor was fragmented again as for MS2 analysis followed by synchronous selection of the up to 10 most intense peptide fragments in the iontrap ([37]) and further fragmentation via HCD using an NCE of 55%. For the MS3 scan, real-time search was enabled to only trigger a MS3 scan for peptides that are TMT-labeled and can be identified (searched against a mouse database, same as used for maxquant processing). The MS3 scan was recorded in the OT at 30,000 resolution (scan range 110–500 m/z, isolation window of 0.7 m/z, AGC of 2e4 charges, maxIT of 120 ms). The cycle time was set to 3 s, and the dynamic exclusion lasted for 60 s.
Raw files were searched with Maxquant (v. 2.0.3.0) against the mouse reference proteome (UP000000589, canonical, download 10/2019, 55,029 entries) with standard settings for reporter ion MS3 unless described otherwise ([39]). Isotope impurities of the TMT lot were specified to allow MaxQuant the automated correction of TMT intensities. […] Trypsin/P was specified as the proteolytic enzyme with up to two missed cleavage sites allowed. […]

With `CCOC(=O)c1nnn(-c2nn3nnnc3c3ccccc23)c1C` [compound 2] the “log2 FC cmpd2_26uM/cmpd3_26uM” value was 0.23.
